From article PMC4842970, “Bioactivity Focus of α-Cyano-4-hydroxycinnamic acid (CHCA) Leads to Effective Multifunctional Aldose Reductase Inhibitors” (Scientific Reports, 2016)

What was measured:
human ALR2 = target: T1, human ALR2 (Homo sapiens, UniProt P15121); assay: ALR2 inhibition (in vitro reduction of D,L-glyceraldehyde); type: biochemical; conditions: human ALR2, D,L-glyceraldehyde as substrate; read-out: IC50 (ALR2 inhibition)
T1 construct: purchased WAKO Pure Chemical Industries, Ltd. (Japan); host or cells: baculovirus-insect cell expression system
Procedure: Human ALR2 was purchased from WAKO Pure Chemical Industries, Ltd. (Japan), which was purified from the culture medium of baculovirus-insect cell expression system. […] ALR2 inhibition was determined spectrophotometrically according to the procedure described previously.

[1] = ORACFL radical absorbance capacity assay
Source text: With the CHCA scaffold, we hypothesized that 5a–j should have antioxidant activity. Therefore, a radical absorbance capacity assay (ORACFL)[41] was employed to assess their capacities. This method is based on the inhibition of peroxyl-radical-induced oxidation initiated by thermal decomposition of azo-compounds, in this case 2,2′-azo-bis (2-amidinopropane) dihydrochloride (AAPH). Trolox (6-hydroxy-2,5,7,8-tetramethylchroman-2-carboxylic acid) was used as a standard reference. Data is expressed as micromoles of Trolox equivalents (TE) per […] of sample (μmol TE/ml or U/ml).
Antioxidant capacity was determined according to the procedure described previously.

chick embryo = assay: Chick embryo model of hyperglycemia: mortality, NTD rate, body weight; type: in vivo; conditions: glucose 0.4 mmol/egg
Procedure: In order to evaluate further the potential of 5f as an agent to treat diseases caused by high glucose inside the system, a chick embryo model of treatment with high glucose was set up.
Fertilized leghorn eggs were purchased from the Avian Farm of the South China Agriculture University (Guangzhou, China). Before the injection of glucose (Sigma–Aldrich, MO, USA), the eggs were incubated in a humidified incubator (Grumbach, Germany) at 37 °C with 60% humidity until the embryos reached the desired stage. […] Glucose was dissolved in 200 μL chicken saline and injected on EDD 1. Mortality, abnormality and body weight measurements were made on EDD 5. Embryos were removed from their eggs and weighed. The percent mortality was measured by counting the number of dead versus all embryos. The rate of NTD of the embryos was assessed by the number of NTD versus survival embryos.

ALR2 = assay: AR (ALR2) activity in glucose-treated embryos (chicken AR ELISA kit); type: in vivo; conditions: glucose-treated chick embryos, EDD 5, edaravone group (0.1 nM)
Procedure: As expected, treatment of 5f decreased ALR2 activity in a dose-dependent manner. […] However, EDA, which is a clinical radical scavenger, was shown no effect on the inhibition of ALR2.
Embryos on EDD 5 were homogenized with chicken saline and centrifuged (4 °C, 10000 rpm, 10 min). The supernatant was used for measuring AR activity in the sample. A chicken AR ELISA kit (Jianglai Biotechnology, China) were used for detection. The concentration of AR in the samples was then determined by comparing the OD of the samples to the standard curve. The sorbitol contents of the chick embryo were determined by a Sorbitol Colorimetric Assay Kit (BioVision, USA). In the assay, sorbitol is oxidized to fructose with the proportional development of intense color with an absorbance maximum at 560 nm.

[2] = test system: oxidative stress (ROS, MDA, ORAC); assay: ROS generation, MDA and ORAC level in chick embryos; type: in vivo; conditions: glucose-treated chick embryos; for ORAC level (anti-oxidative capacity) of embryo: EDD 5
Source text: It has been reported that hyperglycemia increased the production of ROS. Blocking the generation of ROS could at least partially prevent the possible damage of hyperglycemia. No doubt, oxidative stress will be induced in glucose treated embryos. This conclusion was confirmed by the determination of ROS and malondialdehyde (MDA) levels, and the anti-oxidation ability in chick embryos on EDD 5. […] However, treatment of 5f decreased both levels of ROS and MDA in a dose-dependent manner.
In addition, the ORAC level is indicative of the anti-oxidative capacity.
ROS generation ratios in the eyes of EDD 5 chick embryos were detected with 5 μmol 2′,7′-dichlorofluorescein-diacetate (DCFH-DA, Sigma-Aldrich). The peroxide content was determined by measuring thiobarbituric-acid-reactive substances (TBARS) with a commercial MDA kit (Nanjing Jiancheng Institute of Biotechnology, Nanjing, China). The procedures for the ORAC assay were modified from the previously described method. The automated ORAC assay was carried out on a decay of the fluorescein signal and determined with an excitation/emission filter pair of 485/527 nm in a GENios Lueifcrase microplate reader (TECAN) at 37 °C. Final results were calculated on the basis of the difference in the area under the fluorescein decay curve between the blank and each sample.

HEK293 cells = assay: Cytotoxicity, MTT growth inhibition; type: cell-based, human; conditions: 500 μM
Procedure: In another aspect, the toxicity was evaluated by the growth inhibition of 5f against human embryonic kidney 293 (HEK293) cells. It was shown that 5f was nontoxic to HEK293 cells even at high concentration of 500 μM (Supplementary B of Fig. S2).
HEK293 cells were purchased from Centre of Cells Resource, Shanghai Institute of Life Science, Chinese Academy of Sciences, P. R. China. HEK293 cells in the exponential phase were plated on a 96-well cell culture plate with 5 × 10^3 cells in each well supplemented with 100 U/ml of penicillin and 100 μg/ml of streptomycin, which were cultured in a humidified atmosphere of 95% and 5% CO2 at 37 °C for 24 h. The cells were adherent. […] 6 wells were set for each group. The wells without addition of the drug were set as controls. The cells in each of the wells were cultured for another 24 h. Then 15 μl of MTT (5 mg/mL) was added to each well. The plates were then incubated at 37 °C for 4 hours, then the supernatants were discarded. 150 μL of DMSO solutions were added to each of the wells and the solutions were mixed thoroughly. Then the plates were incubated at 37 °C for another 10 minutes. Each sample was mixed again and the resulting formazan was measured by its absorbance at 570 nm using a BIO-RAD680 plate reader (Thermo, USA). The experiments were repeated at least 3 times and compared with the control experiment. […]

ALR1 = target: T2, ALR1 (Gallus gallus, UniProt Q5ZK84); assay: ALR1 activity in glucose-treated embryos (chicken ALR1 ELISA kit); type: in vivo; conditions: glucose-treated chick embryos, EDD 5, compared with the model group
T2 construct: Embryos on EDD 5 were homogenized with chicken saline and centrifuged; from tissue; host or cells: EDD 5 chick (leghorn) embryo homogenate supernatant
T2 sequence (Q5ZK84 1-327): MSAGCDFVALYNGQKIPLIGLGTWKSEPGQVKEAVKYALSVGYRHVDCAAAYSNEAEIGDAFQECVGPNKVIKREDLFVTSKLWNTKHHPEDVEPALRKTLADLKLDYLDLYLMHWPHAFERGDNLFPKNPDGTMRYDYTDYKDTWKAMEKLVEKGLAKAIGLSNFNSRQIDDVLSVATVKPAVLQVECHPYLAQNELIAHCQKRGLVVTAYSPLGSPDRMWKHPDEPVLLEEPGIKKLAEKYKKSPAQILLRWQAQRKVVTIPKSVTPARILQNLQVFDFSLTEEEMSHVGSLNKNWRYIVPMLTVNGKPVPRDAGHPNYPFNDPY
Procedure: Embryos on EDD 5 were homogenized with chicken saline and centrifuged (4 °C, 10000 rpm, 10 min). The supernatant was used for measuring ALR1 activity in the sample. A chicken ALR1 ELISA kit (Jianglai Biotechnology, China) were used for detection. The concentration of ALR1 in the samples was then determined by comparing the OD of the samples to the standard curve.

AR = test system: AR; design: method as in PMID 22316239; conditions: read-out: IC50 (AR inhibition); cited from earlier work

CC(=O)N[C@H](COCc1ccccc1)C(=O)NCCNC(=O)/C(C#N)=C/c1ccc(O)cc1 [Compound 5d, (R,E) – N - (2 - (2-acetamido-3-(benzyloxy)propanamido)ethyl)-2-cyano-3-(4-hydroxyphenyl)acrylamide]
IC50 (human ALR2): 404 ± 7 nM | melting point: 175 to 177 °C | ORAC ([1]; 3.125 μg/ml): 38.3 ± 1.9 U/ml | ORAC ([1]; 6.25 μg/ml): 35.4 ± 3.2 U/ml | ORAC ([1]; 12.5 μg/ml): 33.3 ± 4.1 U/ml

CC1=NN(c2ccccc2)C(=O)C1 [Edaravone, reference compound]
Body weight (chick embryo; EDD 5, dose 0.1 nM): 310.8 ± 11.6 mg | Death (/n) (chick embryo; EDD 5, dose 0.1 nM): 20.0% | NTD (/survival) (chick embryo; EDD 5, dose 0.1 nM): 18.8% | ALR2 activity in embryo (ALR2): no effect | ORAC level (anti-oxidative capacity) of embryo [2]: recovered

CC(/C=C1\SC(=S)N(CC(=O)O)C1=O)=C\c1ccccc1 [Epalrestat, epalrestat, reference compound]
Body weight (chick embryo; EDD 5, dose 1 μM): 300.1 ± 3.6 mg | Death (/n) (chick embryo; EDD 5, dose 1 μM): 25.0% | NTD (/survival) (chick embryo; EDD 5, dose 1 μM): 26.7% | inhibition rate (growth inhibition) (HEK293 cells): 36.4% | ALR1 level in embryo (ALR1): no obvious change | ORAC level (anti-oxidative capacity) of embryo [2]: no effect | MDA level in embryo ([2]; EDD 5, dose 1 μM): no effect | ROS level in embryo ([2]; EDD 5, dose 1 μM): no effect

O=C(O)/C=C/c1ccc(O)cc1 [p-coumaric acid]
IC50 (AR): 140 nM
